Test results as given in patent US8119683B2, “Aryl substituted sulfonamide compounds and their use as anticancer agents” (Taipei Medical University, priority 2009, dated 2012).

| SMILES | melting point [°C] |
| --- | --- |
| COc1ccc(S(=O)(=O)n2ccc3ccnc(Nc4ccccc4)c32)cc1 [Compound 1, [1-(4-methoxy-benzenesulfonyl)-1H-pyrrolo[2,3-c]pyridin-7-yl]-phenyl-amine] | 138.5 to 139.7 |
| COc1ccc(S(=O)(=O)n2ccc3ccnc(N(C)C)c32)cc1 [Compound 3, [1-(4-methoxy-benzenesulfonyl)-1H-pyrrolo[2,3-c]pyridin-7-yl]-dimethyl-amine] | 154.8 to 157.5 |
| COc1ccc(Nc2nccc3ccn(S(=O)(=O)c4ccc(OC)cc4)c23)cc1 [Compound 4, [1-(4-methoxy-benzenesulfonyl)-1H-pyrrolo[2,3-c]pyridin-7-yl]-(4-methoxy-phenyl)-amine] | 155.5 to 158.3 |
| COc1ccc(S(=O)(=O)n2ccc3ccnc(Nc4ccc(F)cc4)c32)cc1 [Compound 5, (4-fluoro-phenyl)-[1-(4-methoxy-benzenesulfonyl)-1H-pyrrolo[2,3-c]pyridin-7-yl]-amine] | 125.1 to 127.1 |
| COc1ccc(S(=O)(=O)n2ccc3ccnc(-c4ccccc4)c32)cc1 [Compound 6, 1-(4-methoxy-benzenesulfonyl)-7-phenyl-1H-pyrrolo[2,3-c]pyridine] | 148.9 to 151 |
| COC(=O)c1ccc(-c2nccc3ccn(S(=O)(=O)c4ccc(OC)cc4)c23)cc1 [Compound 7, 4-[1-(4-methoxy-benzenesulfonyl)-1H-pyrrolo[2,3-c]pyridin-7-yl]-benzoic acid methyl ester] | 143.5 to 146.5 |
| COc1ccc(S(=O)(=O)n2ccc3ccnc(-c4ccc(F)cc4)c32)cc1 [Compound 8, 7-(4-fluoro-phenyl)-1-(4-methoxy-benzenesulfonyl)-1H-pyrrolo[2,3-c]pyridine] | 136 to 137 |
| COc1ccc(S(=O)(=O)n2ccc3ccnc(-c4ccc(Cl)cc4)c32)cc1 [Compound 9, 7-(4-chloro-phenyl)-1-(4-methoxy-benzenesulfonyl)-1H-pyrrolo[2,3-c]pyridine] | 125.5 to 128.5 |
| COc1ccc(S(=O)(=O)n2ccc3ccnc(-c4ccc(O)cc4)c32)cc1 [Compound 10, 4-[1-(4-methoxy-benzenesulfonyl)-1H-pyrrolo[2,3-c]pyridin-7-yl]-phenol] | 179 to 182 |
| COc1ccc(-c2nccc3ccn(S(=O)(=O)c4ccc(OC)cc4)c23)cc1 [Compound 11, 1-(4-methoxy-benzenesulfonyl)-7-(4-methoxy-phenyl)-1H-pyrrolo[2,3-c]pyridine] | 162.8 to 164.8 |
| COc1ccc(S(=O)(=O)n2ccc3ccnc(-c4ccc(N(C)C)cc4)c32)cc1 [Compound 12, {4-[1-(4-methoxy-benzenesulfonyl)-1H-pyrrolo[2,3-c]pyridin-7-yl]-phenyl}-dimethyl-amine] | 111.5 to 114.5 |
| COc1ccc(S(=O)(=O)n2ccc3ccnc(-c4ccncc4)c32)cc1 [Compound 13, 1-(4-methoxy-benzenesulfonyl)-7-pyridin-4-yl-1H-pyrrolo[2,3-c]pyridine] | 193.1 to 194.3 |
| COc1ccc(S(=O)(=O)n2ccc3ccnc(-c4ccc([N+](=O)[O-])cc4)c32)cc1 [Compound 14, 1-(4-methoxy-benzenesulfonyl)-7-(4-nitro-phenyl)-1H-pyrrolo[2,3-c]pyridine] | 177.5 to 178.8 |
| COc1ccc(S(=O)(=O)n2ccc3ccnc(-c4ccc(C(F)(F)F)cc4)c32)cc1 [Compound 15, 1-(4-methoxy-benzenesulfonyl)-7-(4-trifluoromethyl-phenyl)-1H-pyrrolo[2,3-c]pyridine] | 143.1 to 144.9 |
| COc1ccc(S(=O)(=O)n2ccc3ccnc(-c4ccco4)c32)cc1 [Compound 16, 7-furan-2-yl-1-(4-methoxy-benzenesulfonyl)-1H-pyrrolo[2,3-c]pyridine] | 127.1 to 130.3 |
| COc1ccc(S(=O)(=O)n2ccc3cccc(-c4ccc(C#N)cc4)c32)cc1 [Compound 18, 4-[1-(4-methoxy-benzenesulfonyl)-1H-indol-7-yl]-benzonitrile] | 164.3 to 165.7 |
